Measurements taken from PMC12332266 (Frontiers in Pharmacology, 2025).
Where two headings read alike, the source gives them in different places.

Legend:
[1] = tested on: hiPSC-CM (iCell Cardiomyocytes^2); experiment: RTCA CardioECR assessment (impedance and electrophysiology parameters)
Experimental: (§1) Culture media change was performed every 2 days.
After seeding on fibronectin-coated xCELLigence ePlates (Agilent Technologies, Inc. Santa Clara, CA, USA), iCell^2 CM were monitored continuously through impedance electrodes. The following impedance parameters were measured: Cell Index (CI, measure of cell “health” and monolayer integrity), beating rate (BR) and amplitude (CI Amplitude, magnitude of contraction). Electrophysiology-like parameters (Field Potential Duration (FPD), considered as a surrogate for QT in in vivo studies, and Spike Amplitude (SA), depolarization induced by Na^+ channel opening) were measured starting from day 4–6, following the monolayer formation. […] All RTCA CardioECR data were double normalized (DMSO control and the baseline) with no further statistical group comparison for the normalized parameters. The variability of the data within the treatment groups was assessed by standard deviation.

[2] = tested on: hiPSC-CM (iCell Cardiomyocytes^2); experiment: Intracellular miRNA expression by RT-qPCR in hiPSC-CM pellets after 72-hour treatment; conditions: for fold induction at 0.3 µM / fold induction at 1 µM / fold induction at 3 µM / fold induction at 10 µM: Homo sapiens, 72 h
Experimental: as §1
Total RNA was extracted from hiPSC-CM using the miRNeasy 96 Kit (Qiagen, Hilden, Germany) following the manufacturer’s recommendations. After the extraction, RNA purity was assessed by NanoDrop™ 8000 Spectrophotometer (Thermo Fisher Scientific Inc.). 5–10 ng/μL of RNA per sample were reverse transcribed and pre-amplified by using the TaqMan™ Advanced miRNA cDNA Synthesis Kit (Thermo Fisher Scientific Inc.). The synthesized cDNA was used for RT-qPCR with selected TaqMan™ assays (Thermo Fischer Scientific Inc.). RT-qPCR was carried out following the Applied Biosciences TaqMan miRNA expression assay protocol on a ViiA7 instrument (Thermo Fisher Scientific, Inc.). […] Therefore, to maximize the number of drugs and concentrations, explored in the same study, we pooled the triplicates for intracellular profiling of miRNAs. Therefore, no statistical analysis was performed on the data of miRNA profiling in the pellets of hiPSC-CM.
Following RTCA CardioECR assessment, hiPSC-CM cell pellets were collected, and total RNA was extracted and purified to investigate miRNAs upregulation by RT-qPCR. […] For the initial assessment of intracellular miRNAs in 12 different treatments, encompassing various drug classes, we used a panel of 17 miRNAs, which we selected from the publicly available data focusing mainly on in vitro models and structural cardiotoxicants (Supplementary Table S2).

[3] = ref extensive literature search, cited from earlier work
[4] = read-out: hsa-miR-7-5p fold change
[5] = read-out: hsa-miR-29a-5p fold change
[6] = read-out: hsa-miR-146b-5p fold change
[7] = read-out: hsa-miR-187-3p fold change

For `COc1cc([C@@H]2c3cc4c(cc3[C@@H](O[C@@H]3O[C@@H]5CO[C@@H](C)O[C@H]5[C@H](O)[C@H]3O)[C@H]3COC(=O)[C@H]23)OCO4)cc(OC)c1O` [Etoposide], the “Field Potential Duration MEC” value ([1]; human, 72 h) was 3 µM, the “Spike Amplitude (SA) MEC” value ([1]; human, 72 h) was 0.3 µM and the “miRNAs hiPSC-CM pellet, MEC overall” value [2] was 0.1 µM. For the same compound, the “miRNAs upregulated at the MEC overall (hiPSC-CM pellet)” value (shortened to “miRNAs upregulated at the MEC overall”) [2] was “miR-187-3p”, the Cmax total ([3]; Supplementary Table 1) was 33.4 µM and the Cmax total ([3]; Table 1) was 33.40 µM.
With `COc1cccc2c1C(=O)c1c(O)c3c(c(O)c1C2=O)C[C@@](O)(C(C)=O)C[C@@H]3O[C@H]1C[C@H](N)[C@H](O)[C@H](C)O1` [Daunorubicin] the “RTCA, MEC (CI)” value ([1]; human) was 0.1 µM (CI, BR), the “Beating Rate MEC” value ([1]; human, 72 h) was 0.1µM (+21%) and the “Beating rate (BR) MEC” value ([1]; human, 72 h) was 0.1 (+21%) µM. For the same compound, the “Contractility Amplitude MEC” value ([1]; human, 72 h) was 0.3µM (-82%), the “Field Potential Duration MEC” value ([1]; human, 72 h) was 0.1 µM and the “RTCA, MEC (BR)” value ([1]; human, 72 h) was 0.1 µM (CI, BR). For the same compound, the “Spike Amplitude (SA) MEC” value ([1]; human, 72 h) was 0.1µM (-93%), the “miRNAs hiPSC-CM pellet, MEC overall” value [2] was 0.1 µM and the “miRNAs upregulated at the MEC overall” value [2] was “miR-96 -5p, miR-185-3p, miR-187-3p, miR-365a-5p”. The Cmax total ([3]; Supplementary Table 1) was 0.310 to 7.84 µM and the Cmax total ([3]; Table 1) was 0.31 to 7.84 µM.
For `CS(=O)(=O)CCNCc1ccc(-c2ccc3ncnc(Nc4ccc(OCc5cccc(F)c5)c(Cl)c4)c3c2)o1` [Lapatinib], the “RTCA, MEC (CI)” value ([1]; hiPSC-CM, change ≥20%, Table 2) was “ND (ND – not detected, magnitude of change was lower than 20% for CI/BR)”, the “Field Potential Duration MEC” value ([1]; human, 72 h) was 0.1 µM and the “Spike Amplitude (SA) MEC” value ([1]; human, 72 h) was 0.1 µM. The “miRNAs hiPSC-CM pellet, MEC overall” value [2] was 0.1 µM, the “miRNAs upregulated at the MEC overall” value [2] was “miR-126-3p, miR-146b-5p, miR-182-5p, miR-187-3p” and the Cmax total ([3]; Supplementary Table 1) was 4.18 µM. The Cmax total ([3]; Table 1) was 4.18 µM.
In the case of `O=c1[nH]cc(F)c(=O)[nH]1` [5-FluoroUracil], the “Cell index (CI) MEC” value ([1]; hiPSC-CM, 72-hour treatment, lowest concentration causing at least 20% change from baseline) is reported as “ND (ND – not detected, magnitude of change was lower than 20%)”, the “changes in CI or BR and miRNA expression, in words” value ([1]; hiPSC-CM, 72 h, RTCA CardioECR and intracellular miRNA compared) is reported as “did not induce either changes in CI or BR above 20% or miRNA expression above 2-fold change” and the “RTCA, MEC (CI)” value ([1]; hiPSC-CM, change ≥20%, Table 2) is reported as “ND (ND – not detected, magnitude of change was lower than 20% for CI/BR)”. The “intracellular miRNA upregulation in hiPSC-CM, in words” value [2] was “smallest fold change”, the fold induction at 0.3 µM [2, 4] was 0.7 and the fold induction at 1 µM [2, 4] was 0.5. For the same compound, the fold induction at 3 µM [2, 4] was 0.5, the fold induction at 10 µM [2, 4] was 0.7 and the fold induction at 0.3 µM [2, 5] was 0.6. It also gave a fold induction at 1 µM [2, 5] of 0.5, a fold induction at 3 µM [2, 5] of 0.5 and a fold induction at 10 µM [2, 5] of 0.8. The fold induction at 0.3 µM [2, 6] was 0.6, the fold induction at 1 µM [2, 6] was 0.3 and the fold induction at 3 µM [2, 6] was 0.3. The fold induction at 10 µM [2, 6] was 1.6, the fold induction at 0.3 µM [2, 7] was 1.2 and the fold induction at 1 µM [2, 7] was 1.2. For the same compound, the fold induction at 3 µM [2, 7] was 1.1, the fold induction at 10 µM [2, 7] was 0.5 and the Cmax total ([3]; Supplementary Table 1) was 4.6 µM. For the same compound, the Cmax total ([3]; Table 1) was 4.60 µM.
